In US20160376605A1, “WHEAT PLANTS HAVING INCREASED TOLERANCE TO IMIDAZOLINONE HERBICIDES” (BASF SE, priority 2003, published 2016):

Assays:
Durum line C119 = test: Greenhouse Trial: plant injury rating, imazamox; assay type: in vivo, Durum wheat; conditions: 0-9 scale, 0 = no injury, 9 = plant death
Procedure: (§1) Fifteen Durum lines, each derived from a different M2 plant, and two wild type durum lines were evaluated for tolerance to the imidazolinone herbicide imazamox at rates of 100 and 160 g/ha in a greenhouse trial. Evaluations of tolerance were made at 14 and 21 days after treatment. Injury was scored on a 0-9 scale, with 0 representing no injury and 9 plant death.

Durum line UT20 = test: Greenhouse Trial: plant injury rating, imazamox; assay type: in vivo, Durum wheat; conditions: 0-9 scale, 0 = no injury, 9 = plant death
Procedure: as §1

Durum line UT13 = test: Greenhouse Trial: plant injury rating, imazamox; assay type: in vivo, Durum wheat; conditions: 0-9 scale, 0 = no injury, 9 = plant death
Procedure: as §1

Durum line UTO1 = test: Greenhouse Trial: plant injury rating, imazamox; assay type: in vivo, Durum wheat; conditions: 0-9 scale, 0 = no injury, 9 = plant death
Procedure: as §1

Durum line UT15 = test: Greenhouse Trial: plant injury rating, imazamox; assay type: in vivo, Durum wheat; conditions: 0-9 scale, 0 = no injury, 9 = plant death
Procedure: as §1

Durum line UT14 = test: Greenhouse Trial: plant injury rating, imazamox; assay type: in vivo, Durum wheat; conditions: 0-9 scale, 0 = no injury, 9 = plant death
Procedure: as §1

Durum line UT19 = test: Greenhouse Trial: plant injury rating, imazamox; assay type: in vivo, Durum wheat; conditions: 0-9 scale, 0 = no injury, 9 = plant death
Procedure: as §1

Durum line UTO7 = test: Greenhouse Trial: plant injury rating, imazamox; assay type: in vivo, Durum wheat; conditions: 0-9 scale, 0 = no injury, 9 = plant death
Procedure: as §1

Durum line UTO8 = test: Greenhouse Trial: plant injury rating, imazamox; assay type: in vivo, Durum wheat; conditions: 0-9 scale, 0 = no injury, 9 = plant death
Procedure: as §1

Durum line UT16 = test: Greenhouse Trial: plant injury rating, imazamox; assay type: in vivo, Durum wheat; conditions: 0-9 scale, 0 = no injury, 9 = plant death
Procedure: as §1

Durum line UTO5 = test: Greenhouse Trial: plant injury rating, imazamox; assay type: in vivo, Durum wheat; conditions: 0-9 scale, 0 = no injury, 9 = plant death
Procedure: as §1

[1] = tested on: Durum wheat M3:4 lines derived from M2 plant UT13; test: Field Trials (2): tolerance scores at two rates of imazamox; assay type: in vivo; conditions: UT13, range across M3:4 lines
Source text: (§2) One hundred ten M3:4 lines derived from sixteen M2 plants were screened at 71 g/ha and 160 g/ha imazamox. The number of M4 lines per M2 plant varied from one to twenty. Tolerance of M3:4 lines was compared to untreated plots of the same line as well as to treated plots of a wild-type cultivar from which some of them were derived.
(§3) All tested lines survived at both rates of herbicide treatment, whereas all plants of the wild type were killed at both rates. Based on comparison to the wild type line, all lines tested expressed considerable tolerance to the applied rates, particularly when looking at height reduction relative to untreated plots. A rate of 35 g/ha imazamox is adequate to kill susceptible durum wheat.

[2] = tested on: Durum wheat M3:4 lines derived from M2 plant UT05; test: as above; assay type: in vivo; conditions: UT05, range across M3:4 lines
Source text: as §2, §3

[3] = tested on: Durum wheat M3:4 lines derived from M2 plant UT07; test: as above; assay type: in vivo; conditions: UT07, range across M3:4 lines
Source text: as §2, §3

[4] = tested on: Durum wheat M3:4 lines derived from M2 plant UT16; test: as above; assay type: in vivo; conditions: UT16, range across M3:4 lines
Source text: as §2, §3

[5] = tested on: Durum wheat M3:4 lines derived from M2 plant UT20; test: as above; assay type: in vivo; conditions: UT20, range across M3:4 lines
Source text: as §2, §3

[6] = tested on: Fifteen Durum lines, each derived from a different M2 plant; test: Greenhouse Trial: all fifteen mutagenesis-derived lines; assay type: in vivo, Durum wheat; conditions: 100 and 160 g/ha imazamox
Procedure: as §1
A rate of 35 g/ha imazamox is adequate to kill susceptible Durum wheat.

[7] = tested on: One hundred ten M3:4 durum lines derived from sixteen M2 plants; test: Field Trials (2): all tested M3:4 lines; assay type: in vivo, Durum wheat
Source text: as §2, §3

COCc1cnc(C2=NC(C)(C(C)C)C(=O)N2)c(C(=O)O)c1 (stereo not drawn) [imazamox]
Average plant injury rating (Durum line C119; imazamox 100 g/ha, 14 DAT): 4.8
Average plant injury rating (Durum line C119; imazamox 100 g/ha, 21 DAT): 1.0
Average plant injury rating (Durum line C119; imazamox 160 g/ha, 14 DAT): 4.9
Average plant injury rating (Durum line C119; imazamox 160 g/ha, 21 DAT): 1.4
Average plant injury rating (Durum line UT20; imazamox 100 g/ha, 14 DAT): 5.0
Average plant injury rating (Durum line UT20; imazamox 100 g/ha, 21 DAT): 2.1
Average plant injury rating (Durum line UT20; imazamox 160 g/ha, 14 DAT): 5.3
Average plant injury rating (Durum line UT20; imazamox 160 g/ha, 21 DAT): 2.5
Average plant injury rating (Durum line UT13; imazamox 100 g/ha, 14 DAT): 4.7
Average plant injury rating (Durum line UT13; imazamox 100 g/ha, 21 DAT): 2.3
Average plant injury rating (Durum line UT13; imazamox 160 g/ha, 14 DAT): 5.8
Average plant injury rating (Durum line UT13; imazamox 160 g/ha, 21 DAT): 3.4
Average plant injury rating (Durum line UTO1; imazamox 100 g/ha, 14 DAT): 4.0
Average plant injury rating (Durum line UTO1; imazamox 100 g/ha, 21 DAT): 1.4
Average plant injury rating (Durum line UTO1; imazamox 160 g/ha, 14 DAT): 4.1
Average plant injury rating (Durum line UTO1; imazamox 160 g/ha, 21 DAT): 2.6
Average plant injury rating (Durum line UT15; imazamox 100 g/ha, 14 DAT): 4.3
Average plant injury rating (Durum line UT15; imazamox 100 g/ha, 21 DAT): 2.7
Average plant injury rating (Durum line UT15; imazamox 160 g/ha, 14 DAT): 4.6
Average plant injury rating (Durum line UT15; imazamox 160 g/ha, 21 DAT): 3.0
Average plant injury rating (Durum line UT14; imazamox 100 g/ha, 14 DAT): 3.1
Average plant injury rating (Durum line UT14; imazamox 100 g/ha, 21 DAT): 1.7
Average plant injury rating (Durum line UT14; imazamox 160 g/ha, 14 DAT): 4.8
Average plant injury rating (Durum line UT14; imazamox 160 g/ha, 21 DAT): 3.5
Average plant injury rating (Durum line UT19; imazamox 100 g/ha, 14 DAT): 3.3
Average plant injury rating (Durum line UT19; imazamox 100 g/ha, 21 DAT): 1.1
Average plant injury rating (Durum line UT19; imazamox 160 g/ha, 14 DAT): 3.6
Average plant injury rating (Durum line UT19; imazamox 160 g/ha, 21 DAT): 1.7
Average plant injury rating (Durum line UTO7; imazamox 100 g/ha, 14 DAT): 3.7
Average plant injury rating (Durum line UTO7; imazamox 100 g/ha, 21 DAT): 1.9
Average plant injury rating (Durum line UTO7; imazamox 160 g/ha, 14 DAT): 4.4
Average plant injury rating (Durum line UTO7; imazamox 160 g/ha, 21 DAT): 2.5
Average plant injury rating (Durum line UTO8; imazamox 100 g/ha, 14 DAT): 4.5
Average plant injury rating (Durum line UTO8; imazamox 100 g/ha, 21 DAT): 1.9
Average plant injury rating (Durum line UTO8; imazamox 160 g/ha, 14 DAT): 5.5
Average plant injury rating (Durum line UTO8; imazamox 160 g/ha, 21 DAT): 3.0
Average plant injury rating (Durum line UT16; imazamox 100 g/ha, 14 DAT): 5.4
Average plant injury rating (Durum line UT16; imazamox 100 g/ha, 21 DAT): 2.0
Average plant injury rating (Durum line UT16; imazamox 160 g/ha, 14 DAT): 4.9
Average plant injury rating (Durum line UT16; imazamox 160 g/ha, 21 DAT): 2.8
Average plant injury rating (Durum line UTO5; imazamox 100 g/ha, 14 DAT): 3.0
Average plant injury rating (Durum line UTO5; imazamox 100 g/ha, 21 DAT): 1.3
Average plant injury rating (Durum line UTO5; imazamox 160 g/ha, 14 DAT): 3.3
Average plant injury rating (Durum line UTO5; imazamox 160 g/ha, 21 DAT): 1.8
% Chlorosis ([1]; imazamox 71 g/ha, 14 DAT): 5%
% Height Reduction ([1]; imazamox 71 g/ha, 14 DAT): 0-10%
% Chlorosis ([1]; imazamox 71 g/ha, 30 DAT): 5%
% Height Reduction ([1]; imazamox 71 g/ha, 30 DAT): 5%
% Chlorosis ([1]; imazamox 160 g/ha, 14 DAT): 5%
% Height Reduction ([1]; imazamox 160 g/ha, 14 DAT): 0-10%
% Chlorosis ([1]; imazamox 160 g/ha, 30 DAT): 5-10%
% Height Reduction ([1]; imazamox 160 g/ha, 30 DAT): 5%
% Chlorosis ([2]; imazamox 71 g/ha, 14 DAT): 5-10%
% Height Reduction ([2]; imazamox 71 g/ha, 14 DAT): 5-10%
% Chlorosis ([2]; imazamox 71 g/ha, 30 DAT): 5-10%
% Height Reduction ([2]; imazamox 71 g/ha, 30 DAT): 5-10%
% Chlorosis ([2]; imazamox 160 g/ha, 14 DAT): 5-15%
% Height Reduction ([2]; imazamox 160 g/ha, 14 DAT): 10-30%
% Chlorosis ([2]; imazamox 160 g/ha, 30 DAT): 5-20%
% Height Reduction ([2]; imazamox 160 g/ha, 30 DAT): 5-20%
% Chlorosis ([3]; imazamox 71 g/ha, 14 DAT): 0-5%
% Height Reduction ([3]; imazamox 71 g/ha, 14 DAT): 0-10%
% Chlorosis ([3]; imazamox 71 g/ha, 30 DAT): 0-10%
% Height Reduction ([3]; imazamox 71 g/ha, 30 DAT): 0-5%
% Chlorosis ([3]; imazamox 160 g/ha, 14 DAT): 5-10%
% Height Reduction ([3]; imazamox 160 g/ha, 14 DAT): 0-10%
% Chlorosis ([3]; imazamox 160 g/ha, 30 DAT): 5-15%
% Height Reduction ([3]; imazamox 160 g/ha, 30 DAT): 0-10%
% Chlorosis ([4]; imazamox 71 g/ha, 14 DAT): 5-10%
% Height Reduction ([4]; imazamox 71 g/ha, 14 DAT): 0%
% Chlorosis ([4]; imazamox 71 g/ha, 30 DAT): 0%
% Height Reduction ([4]; imazamox 71 g/ha, 30 DAT): 0-10%
% Chlorosis ([4]; imazamox 160 g/ha, 14 DAT): 10-20%
% Height Reduction ([4]; imazamox 160 g/ha, 14 DAT): 0-10%
% Chlorosis ([4]; imazamox 160 g/ha, 30 DAT): 0-5%
% Height Reduction ([4]; imazamox 160 g/ha, 30 DAT): 0-10%
% Chlorosis ([5]; imazamox 71 g/ha, 14 DAT): 0-5%
% Height Reduction ([5]; imazamox 71 g/ha, 14 DAT): 0%
% Chlorosis ([5]; imazamox 71 g/ha, 30 DAT): 0%
% Height Reduction ([5]; imazamox 71 g/ha, 30 DAT): 5-10%
% Chlorosis ([5]; imazamox 160 g/ha, 14 DAT): 5-10%
% Height Reduction ([5]; imazamox 160 g/ha, 14 DAT): 0-20%
% Chlorosis ([5]; imazamox 160 g/ha, 30 DAT): 0%
% Height Reduction ([5]; imazamox 160 g/ha, 30 DAT): 10-15%
tolerance to imazamox [6]: excellent tolerance
survival of tested lines ([7]; imazamox 71 g/ha and 160 g/ha (both rates), all tested M3:4 lines): survived
tolerated rate relative to the 35 g/ha rate that kills susceptible durum wheat ([7]; lines evaluated at 71 and 160 g/ha imazamox): almost 3 times to over 4 times
